In patent US20240224953A1 (Barlaa B.V., priority 2021, published 2024):
Read-outs that look alike come from different tables or passages of the source.

Legend:
whiteleg shrimps [1] = conditions: applied once or twice a day, 6 ponds
trypsin gene = conditions: hepatopancreas, after 56 days, versus control, FIG. 2
Protocol: At the end of the grow-out period, shrimp were sampled for the growth and feed utilisation metrics. Water quality parameters were measured three times daily. At the end of the trial, shrimps were assessed for the growth performance as described below. Shrimp from each treatment group were examined and the hepato-pancreas removed carefully from 10 individual animals and processed as described below.
For RNA extraction, hepatopancreases were extracted by using trizol reagent (Invitrogen, USA). Briefly, 1 ml of trizol reagent were added into 50-100 mg of tissue samples. then, the samples were homogenized at 3,500 rpm for 1 min by using Micro Smash MS-100R (TOMY, Japan). After incubated sample at RT for 5 min, 200 μl of chloroform were added and mixed vigorous. The samples were centrifuged at 12,000 rpm at 4° C. for 15 min. after collected supernatant into new 1.5 ml tube, 1 volume of isopropanol were added and incubated at −20° C. for 2 h or O/N. Next, RNA pellets were collected by centrifuged at 12,000 rpm at 4° C. for 15 min. then, the pellets were washed with 500 μl of 75% ethanol and dried pellet at 65° C. Lastly, 30 μl of RNase free water was added for dissolved RNA pellet. RNA concentration was measured by using nanodrop spectrophotometer (Thermo Fisher Scientific, USA).

[2] = system: Tiger shrimps (Penaeus monodon); conditions: three ponds, applied after each change of water every 5 days
Protocol: Tiger shrimps (Penaeus monodon), also named giant tiger prawn, asian tiger prawn or black tiger shrimp, is one of the most popular cultured shrimp species in the world.
A small scale trial was carried out in 2019 in Chittagong-Bangladesh in three ponds of +2.5 ha.

[3] = system: whiteleg shrimps (Litopenaeus vannamei)
Protocol: Water quality parameters, including salinity, dissolved oxygen, pH and total ammonia nitrogen (TAN) were monitored regularly in both control and treated ponds. The growth rate of the shrimps was monitored regularly. Total number was counted and mean body weight of shrimp was measured. Based on recording the weight of shrimp and counting the number of shrimps, weight gain, feed conversion ratio (FCR) and survival were calculated.

whiteleg shrimp = system: whiteleg shrimp
From the text: Trials are done in Northern part, Central part and Southern part in Vietnam, 2020-2021.

α-amylase gene = conditions: hepatopancreas, after 56 days, versus control, FIG. 2
Protocol: For RNA extraction, hepatopancreases were extracted by using trizol reagent (Invitrogen, USA). Briefly, 1 ml of trizol reagent were added into 50-100 mg of tissue samples. then, the samples were homogenized at 3,500 rpm for 1 min by using Micro Smash MS-100R (TOMY, Japan). After incubated sample at RT for 5 min, 200 μl of chloroform were added and mixed vigorous. The samples were centrifuged at 12,000 rpm at 4° C. for 15 min. after collected supernatant into new 1.5 ml tube, 1 volume of isopropanol were added and incubated at −20° C. for 2 h or O/N. Next, RNA pellets were collected by centrifuged at 12,000 rpm at 4° C. for 15 min. then, the pellets were washed with 500 μl of 75% ethanol and dried pellet at 65° C. Lastly, 30 μl of RNase free water was added for dissolved RNA pellet. RNA concentration was measured by using nanodrop spectrophotometer (Thermo Fisher Scientific, USA). […]
Real-time PCR was used to detected growth genes in shrimp.
Reaction mixture for real-time PCR was composed of 1 μl of 100 cDNA, 5 μl of 2× qPCRBIO SyGreen mix, forward and reverse primer at final concentration 0.2 μM and adjusted volume up to 10 μl by nuclease free water. […] The relative fold gene expression level was calculated by using the formula below: […]

whiteleg shrimps [4] = system: whiteleg shrimps
From the text: In […] further experiments were done in Gujarat-India on whiteleg shrimps.

[5] = system: Pacific Whiteleg shrimp (Litopenaeus vannamei)
Protocol: An 8-week growth trial study on Pacific Whiteleg shrimp (Litopenaeus vannamei) (1.0 g/shrimp) in duplicate was conducted in a 3,200 m2 earthen pond (100,000 shrimps per 1,600 m2) at the GAP certified private shrimp farm, Nakhon Pathom province, Thailand. […] The pond size was 2 Rai (1 Rai is 1,600 m^2). Stocking density is 100,000 shrimps/1 Rai.
Shrimp were fed by automatic feeder four times a day according to the farming standard. […] The bespoke shrimp feed specification was Crude Protein 38%, Crude Fat 7%, and diet pellet sizes of 1.5 mm; 2.0 mm; 2.5 mm that were assigned across the trial period to optimise maximum intake.

Pangasius hypophthalmus = test: Experiment 7C: pond trial on Pangasius in Bangladesh; type: in vivo; conditions: overall results of the 8 ponds
From the text: Pangas belonging to the genus of medium-large catfishes, is a relatively new and fast-growing fish species that has great potential for production and export growth in Bangladesh. Polyculture of pangasius (P. hypophthalmus) with carps is the existing culture practice along with monoculture being practiced by many households in Bangladesh.
Trials have been done in 2019 in Mymensingh region on 4 ponds with an average of 1,4 ha and an average depth of 1.5 m in the dry season and 2 m. in the rainy season (May to November). For feeding standard commercial pelleted feeds were used.

whiteleg shrimps [6] = system: whiteleg shrimps; remark: listed apart in the source
[7] = all testing locations in Vietnam, 2020-2021

Q: What does the source list for “silicic acid [bioavailable silicic acid compound]”?
A: overall increase of the yield (whiteleg shrimps [1]): 19%; trypsin gene expression relative to housekeeping gene (trypsin gene): down regulation; overall yield increase (compared to control) [2]: 18.4%; average weight gain of the shrimps compared to control pond ([3]; first experiments, 2017, brackish ponds, Gujarat): 26%; increase (average weight gain) compared to control ([3]; second trial): 17.5%; environment, growth, survival, and energy efficiency of shrimp production (whiteleg shrimp; Central Vietnam): remarkably good results; higher yields (average) (whiteleg shrimp; [7]): 18.7%; larger shrimps (average) (whiteleg shrimp; [7]): 14%; α-amylase gene expression relative to housekeeping gene (α-amylase gene): down regulation; average yield increase of shrimps (whiteleg shrimps [4]; 8 ponds, 1.5 liters of 2.5% product every 15 days, compared to control): 18.3%; food conversion rate (FCR) (whiteleg shrimps [4]; average of treated ponds (control ponds 1.52)): 1.45; average (mean) weight of shrimp at end of trial ([5]; 8-weeks growth trial, FIG. 1 (control 9.48)): 12.49 g; Apparent net protein utilization (%) ([5]; 8 weeks, with silicic acid): 36.4 ± 1.4 ^A %; Average daily gain ([5]; 8 weeks, with silicic acid): 0.12 ± 0.02 g/day; Feed conversion ratio ([5]; 8 weeks, with silicic acid): 1.18 ± 0.05 ^A; Final weight (g/shrimp) ([5]; 8 weeks, with silicic acid): 12.49 ± 2.46 g/shrimp; Specific growth rate (%/day) ([5]; 8 weeks, with silicic acid): 3.21 ± 0.20 ^A %/day; Survival rate (%) ([5]; 8 weeks, with silicic acid): 69.8 ± 4.5 ^A %; Total biomass (kg of harvested shrimp) ([5]; 8 weeks, with silicic acid): 1,047 ± 208.25 ^A kg; shrimp performance under pond rearing conditions ([5]; exposed for 8 weeks): significantly better; increase of overall yield (Pangasius hypophthalmus; both treatments pooled): 16.6%; overall yield (Pangasius hypophthalmus; both treatments pooled (from 11.400 kg/ha/year)): 13.300 kg/ha/year; average yield increase of shrimps (whiteleg shrimps [6]; 4 ponds, application every 3 days, brackish water): 24.27%; feed conversion rate (FCR) (whiteleg shrimps [6]; average of treated ponds (control ponds 1.5)): 1.37
